Results reported in patent publication US20160030318A1, “HIGHLY BIOAVAILABLE Na-ACYL ACIDIC AMINO ACID ESTER SALT COMPOSITONS WITH ZWITTERIONIC SURFACTANTS” (JOHNSON & JOHNSON CONSUMER INC., priority 2014, published 2016).

Columns and labels:
[1] = Disc Retention Assay (DRA) for LAE bioavailability; assay type: in vitro ADME
Description: Procedure for Determining Bioavailability
Lanzalaco. Availability Testing of Cetylpyridinium Chloride Mouthrinses. […] Mar. 19-23, 1997.
Cellulose Filter disks (Schleicher and Schuell #740-E)
24-well culture plate (Corning 3526)
Vacuum pulled filtration system
0.1% Acid Fuschin dye solution (w/v)
20% p-toluenesulfonic acid solution (w/v)
Spectrophotometer (Molecular Devices—SpectraMAX 190)
10. […] Vortexed solution.
12. Read absorbance spectrophotometrically at 545 nm.

[2] = tested on: Escherichia, Pseudomonas aeruginosa, Proteus vulgarus, Staphylococcus aureus, Bacillus substilis, Candida albicans and Aspergillus niger; settings: disclosed in GB 1352420; cited from earlier work
[3] = described in JP 57-165305; cited from earlier work

Substance | BA ± SE with LAE [1] [%] | BA ± SE without LAE [1] [%] | Impact of surfactant on LAE bioavailability [1] | bactericidal activity [2] | bacteriocidal activity [3]
Cocamidopropyl Betaine | 86.1 ± 2.8 | 27.6 ± 15.0 | did not negatively impact bioavailability |  | 
N^α-cocoyl-L-arginine ethyl ester pyrrolidone carboxylate |  |  |  | bactericidal activity | weak bacteriocidal activity
N^α-cocoyl-L-arginine methyl ester pyrrolidone carboxylate |  |  |  | bactericidal activity | 
Poloxamer 407 | 35.9 ± 5.2 |  |  |  | 
